Results published in article PMC3561933 (Bioorganic & medicinal chemistry letters, 2012).

How the values were obtained:
HIV-1 Y181C variant [1] = assay type: cell-based; conditions: relative to 1f
HIV-1 Y181C variant [2] = conditions: ref 7b, cited from earlier work
[3] = tested on: HIV-1 Y181C combined with Lys103Asn; conditions: cited from earlier work
[4] = observed; cited from earlier work
[5] = tested on: HIV-1 strains with Tyr181Cys (Y181C) mutation; conditions: cited from earlier work

N#Cc1ccc(Nc2ncc(Cc3c(F)cc(C4CC4)cc3F)o2)cc1Cl [Compound 1g]
fold less active towards Y181C variant than 1f (HIV-1 Y181C variant [1]): 200 fold | factor less active against WT virus than 1f (HIV-1 IIIB (wild-type); relative to 1f): 5

Fc1cccc(F)c1Cc1cnc(Nc2ccc(Oc3cccnc3)c(Cl)c2)o1 [Compound 2a]
EC50 (HIV-1 Y181C variant [2]; read-out: EC50 for the Y181C variant, earlier work): 3000 nM

O=C1Nc2ccc(Cl)cc2[C@@](C#CC2CC2)(C(F)(F)F)O1 [efavirenz]
activity towards Y181C combined with Lys103Asn [3]: debilitated

c1ccc(C2CC2)cc1 [cyclopropylbenzene]
octanol/water log P [4]: 3.3

CCc1cc(F)c(Cc2cnc(Nc3ccc(C#N)c(Cl)c3)o2)c(F)c1 [Compound 1e]
gain in WT potency over 1b (factor) (HIV-1 IIIB (wild-type); relative to 1b): 5

CC(C)c1ccccc1 [isopropylbenzene]
octanol/water log P [4]: 3.7

CCc1cc(F)c(Cc2cnc(Nc3ccc(Oc4cccnc4)c(Cl)c3)o2)c(F)c1 [Compound 2b]
fold activity boost against WT virus in comparison to 2a (HIV-1 IIIB (wild-type); relative to 2a): 5 fold

Cc1ccnc2c1NC(=O)c1cccnc1N2C1CC1 [nevirapine]
activity towards HIV-1 strains with Y181C mutation [5]: inactive

N#Cc1ccc(Nc2ncc(Cc3c(F)cccc3F)o2)cc1 [Compound 1a]
activity towards a Y181C-containing strain (HIV-1 Y181C variant [2]; earlier work): no activity

CC(C)Nc1cccnc1N1CCN(C(=O)c2cc3cc(NS(C)(=O)=O)ccc3[nH]2)CC1 [delavirdine]
activity towards HIV-1 strains with Y181C mutation [5]: inactive
